According to article PMC10165273, “Itch receptor MRGPRX4 interacts with the receptor activity–modifying proteins” (The Journal of Biological Chemistry, 2023):
“And” between values parts separate entries of the source, which are not always exact repeats. Equal values may be shown once. Read-outs that look alike come from different tables or passages of the source.

Biological target: T1, MRGPRX4 + RAMP2 (Homo sapiens, UniProt Q96LA9)
T1 construct: expressed in transfected cells; host or cells: HEK293T
T1 sequence (Q96LA9 whole entry): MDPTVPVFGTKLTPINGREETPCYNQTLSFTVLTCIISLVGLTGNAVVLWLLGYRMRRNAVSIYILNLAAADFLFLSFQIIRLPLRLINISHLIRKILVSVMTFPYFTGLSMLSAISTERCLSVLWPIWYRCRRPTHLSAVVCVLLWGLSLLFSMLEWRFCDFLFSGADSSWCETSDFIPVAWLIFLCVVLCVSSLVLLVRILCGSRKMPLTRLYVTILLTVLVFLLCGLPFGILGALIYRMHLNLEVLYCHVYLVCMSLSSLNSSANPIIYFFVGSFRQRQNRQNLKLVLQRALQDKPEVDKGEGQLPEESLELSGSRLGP
Assay: IP1 accumulation, MRGPRX4 coexpressed with RAMP2
Type: cell-based
Design: key to response to agonist, X4:ramp2.I:2: % IP1: mock-transfected unstimulated = 0%, fully stimulated MRGPRX4 = 100%; key to IP1 Basal / response to agonist, X4:ramp2.I:0.25 / response to agonist, X4:ramp2.I:0.5 / response to agonist, X4:ramp2.I:1: % IP1; unstimulated mock = 0%, fully stimulated MRGPRX4 = 100%
Conditions: for Emax: read-out: IP1 Emax; for IP1 accumulation (normalized): MRGPRX4+RAMP2 1pg 1:1, Supplementary Figure 5e, 5g
Procedure: HEK293T cells were transfected with 1 pg/cell of MRGPRX4 DNA, and the amount of DNA was kept constant at 2 pg/cell with pcDNA3.1(+) empty vector, unless otherwise specified. Twenty four hours after transfection, IP1 assay was performed as previously described ([51]). When applicable, cells were treated with 1 μM YM254890 (YM) or different concentrations of U73122 for 1 h prior to addition of agonist or buffer. After incubation for 2 h, HTRF reagents and IP1 calibration standards were added and incubated for 2 h in the dark at room temperature. Time-resolved fluorescence signals were read on the BioTek Synergy NEO-TRF Hybrid multi-mode reader (BioTek Instruments). All data were carried out in three independent experiments with three technical replicate each.
For RAMP DNA titration assay, HEK293T cells were cotransfected with a constant amount of 1 pg/cell of FLAG-MRGPRX4-GFP10-1D4 to which a serial dilution of 1, 0.75, 0.5, 0.25, or 0 pg/cell of each HA-RAMP-OLLAS was added. For a homogenous transfection of MRGPRX4, a master mix of MRGPRX4 DNA was made prior to addition of the RAMP DNA. […]
Data reduction, standard calibration, and transformation of HTRF data were performed as previously described ([51]). Normalized IP1 values were calculated relative to the unstimulated mock-transfected cells (set to 0%) and fully stimulated MRGPRX4 (alone if applicable) (set to 100%).

[1] = MRGPRX4 + RAMP2 0.25 pg (Fig. S3), normalized per agonist
[2] = MRGPRX4 + RAMP2 0.5 pg (Fig. S3), normalized per agonist
[3] = MRGPRX4 + RAMP2 1 pg (Fig. S3), normalized per agonist
[4] = MRGPRX4 + RAMP2 2 pg (Fig. S3), normalized per agonist
[5] = Tet-On MRGPRX4:RAMP2 Ratio 1:0.5 (Fig. S5E)
[6] = Tet-On MRGPRX4:RAMP2 Ratio 1:0.75 (Fig. S5E)
[7] = Tet-On MRGPRX4:RAMP2 Ratio 1:1 (Fig. S5E)

In the case of CC(C)[C@H]1CC[C@H](C(=O)N[C@H](Cc2ccccc2)C(=O)O)CC1 [Nateglinide], the EC50 (Figure 4a top, DNA ratio MRGPRX4:RAMP2 1:0.25, individual replicates, read-out: potency (converted)) is reported as 9.57 µM and 9.23 µM (2×), the EC50 (Figure 4a top, DNA ratio MRGPRX4:RAMP2 1:0.5, individual replicates, read-out: potency (converted)) is reported as 15.1 µM and 11.3 µM and 13.1 µM and the EC50 (Figure 4a top, DNA ratio MRGPRX4:RAMP2 1:0.75, individual replicates, read-out: potency (converted)) is reported as 15.4 µM and 13.9 µM and 10.4 µM. The EC50 (Figure 4a top, DNA ratio MRGPRX4:RAMP2 1:1, individual replicates, read-out: potency (converted)) was 39.9 µM and 19.4 µM and 24.3 µM, the “response to agonist, X4:ramp2.I:0.25” value (Figure 4c-f, agonist 100µM, X4:ramp2 1:0.25, MRGPRX4 = 100) was 71.8475 and 74.3589 and the “response to agonist, X4:ramp2.I:0.5” value (Figure 4c-f, agonist 100µM, X4:ramp2 1:0.5, MRGPRX4 = 100) was 61.7207 and 60.1764. The “response to agonist, X4:ramp2.I:1” value (Figure 4c-f, agonist 100µM, X4:ramp2 1:1, MRGPRX4 = 100) was 42.7283 and 40.01, the “response to agonist, X4:ramp2.I:2” value (Figure 4c-f, agonist 100µM, X4:ramp2 1:2, MRGPRX4 = 100) was 16.754 and 20.2407 and the “IP1 Basal” value [1] was 16.83. For the same compound, the IP1 span (Emax minus basal) [1] was 84.5%, the EC50 (MRGPRX4 + RAMP2 0.25 pg (Fig. S3), normalized per agonist, read-out: IP1 EC50) was 11.8 µM and the Emax [1] was 101%. The “IP1 Basal” value [2] was 13.85, the IP1 span (Emax minus basal) [2] was 55.7% and the Emax [2] was 69.5%. The EC50 (MRGPRX4 + RAMP2 0.5 pg (Fig. S3), normalized per agonist, read-out: IP1 logEC50 (converted)) was 6.68 µM, the “IP1 Basal” value [3] was 8.724 and the IP1 span (Emax minus basal) [3] was 37.8%. The Emax [3] was 46.5%, the EC50 (MRGPRX4 + RAMP2 1 pg (Fig. S3), normalized per agonist, read-out: IP1 logEC50 (converted)) was 9.29 µM and the “IP1 Basal” value [4] was 3.623. The IP1 span (Emax minus basal) [4] was 25.2%, the EC50 (MRGPRX4 + RAMP2 2 pg (Fig. S3), normalized per agonist, read-out: IP1 EC50) was 26.6 µM and the Emax [4] was 28.8%. For the same compound, the “IP1 Basal” value [5] was 7.610, the IP1 span (Emax minus basal) [5] was 68% and the EC50 (Tet-On MRGPRX4:RAMP2 Ratio 1:0.5 (Fig. S5E), read-out: IP1 EC50) was 8.76 µM. For the same compound, the Emax [5] was 75.6%, the “IP1 Basal” value [6] was 4.862 and the IP1 span (Emax minus basal) [6] was 63.1%. For the same compound, the EC50 (Tet-On MRGPRX4:RAMP2 Ratio 1:0.75 (Fig. S5E), read-out: IP1 EC50) was 10.5 µM, the Emax [6] was 67.9% and the EC50 (Tet-On MRGPRX4:RAMP2 Ratio 1:0.75 (Fig. S5E), read-out: IP1 logEC50 (converted)) was 10.5 µM. For the same compound, the “IP1 Basal” value [7] was 3.554, the IP1 span (Emax minus basal) [7] was 52.2% and the EC50 (Tet-On MRGPRX4:RAMP2 Ratio 1:1 (Fig. S5E), read-out: IP1 EC50) was 16.7 µM. For the same compound, the Emax [7] was 55.7%, the “IP1 accumulation (normalized)” value (log [nateglinide] (M) -4) was 49.0479 and 42.2633 and 46.2108 and the “IP1 accumulation (normalized)” value (log [nateglinide] (M) -4.69897) was 35.8073 and 28.8485 and 29.8595. The “IP1 accumulation (normalized)” value (log [nateglinide] (M) -5.39794) was 15.3369 and 12.9717 and 15.4367, the “IP1 accumulation (normalized)” value (log [nateglinide] (M) -6.09691) was 5.582 and 4.886 and 4.986 and the “IP1 accumulation (normalized)” value (log [nateglinide] (M) -6.79588) was 3.625 and 3.074 and 3.358. The “IP1 accumulation (normalized)” value (log [nateglinide] (M) -7.49485) was 3.035 and 3.588 and 4.695.
